Data set [1] deals with Glucose-6-phosphate 1-dehydrogenase (Homo sapiens, UniProt P11413). Description: inhibition of Homo sapiens G6PD, dose series – biochemical, fluorescence, selectivity assay for P. falciparum G6PD inhibitor project, dose response (AID 504792). Format: functional.
Data set [2] relates to HEK293. Kind of data set: cells. Format: functional, cell-based. To be noted: Homo sapiens.
Data set [3] has as its target T1, Nuclear receptor subfamily 0 group B member 1 (Homo sapiens, UniProt P51843).
T1 sequence (P51843 whole entry): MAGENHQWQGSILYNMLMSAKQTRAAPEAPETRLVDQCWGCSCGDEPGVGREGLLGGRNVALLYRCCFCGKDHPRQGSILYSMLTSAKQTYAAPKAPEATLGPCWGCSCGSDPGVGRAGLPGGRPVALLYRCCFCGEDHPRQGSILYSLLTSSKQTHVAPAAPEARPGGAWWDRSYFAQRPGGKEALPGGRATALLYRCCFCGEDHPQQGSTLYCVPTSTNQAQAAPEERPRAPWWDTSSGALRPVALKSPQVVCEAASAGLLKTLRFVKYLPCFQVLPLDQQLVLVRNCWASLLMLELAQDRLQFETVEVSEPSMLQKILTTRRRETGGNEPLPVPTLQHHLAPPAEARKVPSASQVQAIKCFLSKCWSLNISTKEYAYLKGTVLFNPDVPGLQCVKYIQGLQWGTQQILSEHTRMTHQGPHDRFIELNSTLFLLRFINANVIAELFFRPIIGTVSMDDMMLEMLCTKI
Kind of data set: Luminescence-based cell-based high throughput dose response assay for inhibitors of the orphan nuclear receptor subfamily 0, group B, member 1 (DAX1; NR0B1). [Related pubchem assays (depositor defined):AID504766, AID504790]. The format is functional.

In data set [4] the target is Cytochrome P450 2D6 (Homo sapiens, UniProt P10635).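 Also: CYP2D6 member of a cytochrome P450 panel assay.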
Chain of Cytochrome P450 2D6 (P10635 whole entry): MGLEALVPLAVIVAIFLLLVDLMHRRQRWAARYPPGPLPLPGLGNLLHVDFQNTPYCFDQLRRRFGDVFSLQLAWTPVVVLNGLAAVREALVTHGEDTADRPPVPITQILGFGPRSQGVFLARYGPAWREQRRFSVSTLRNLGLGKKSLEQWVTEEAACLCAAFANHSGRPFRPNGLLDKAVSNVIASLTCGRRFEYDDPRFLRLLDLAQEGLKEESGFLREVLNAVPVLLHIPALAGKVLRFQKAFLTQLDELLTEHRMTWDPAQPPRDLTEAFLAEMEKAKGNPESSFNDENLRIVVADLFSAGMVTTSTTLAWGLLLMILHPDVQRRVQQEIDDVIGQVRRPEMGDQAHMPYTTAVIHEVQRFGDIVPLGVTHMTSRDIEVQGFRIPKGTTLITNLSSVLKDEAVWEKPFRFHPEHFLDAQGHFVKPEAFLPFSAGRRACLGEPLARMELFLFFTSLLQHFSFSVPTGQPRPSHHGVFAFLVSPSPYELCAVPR
The target of data set [5] is T2, Calpain-2 catalytic subunit (Sus scrofa, UniProt P43367).
T2 sequence (P43367 whole entry): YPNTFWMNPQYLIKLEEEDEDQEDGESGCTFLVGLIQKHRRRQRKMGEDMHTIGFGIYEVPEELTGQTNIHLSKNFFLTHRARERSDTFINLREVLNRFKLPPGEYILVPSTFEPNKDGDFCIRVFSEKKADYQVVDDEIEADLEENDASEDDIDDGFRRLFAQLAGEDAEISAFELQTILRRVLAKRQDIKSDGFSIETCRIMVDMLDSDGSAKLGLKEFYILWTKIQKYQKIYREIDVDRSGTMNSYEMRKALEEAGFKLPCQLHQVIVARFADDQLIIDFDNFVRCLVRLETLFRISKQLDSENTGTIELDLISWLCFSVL
Description: m-calpain protease blockers, concentration series – biochemical, fluorogenic peptide substrate, dose response (AID 1420). The format is functional.

Data set [6] addresses T3, High affinity choline transporter 1 (Homo sapiens, UniProt Q9GZV3).
T3 sequence (Q9GZV3 whole entry): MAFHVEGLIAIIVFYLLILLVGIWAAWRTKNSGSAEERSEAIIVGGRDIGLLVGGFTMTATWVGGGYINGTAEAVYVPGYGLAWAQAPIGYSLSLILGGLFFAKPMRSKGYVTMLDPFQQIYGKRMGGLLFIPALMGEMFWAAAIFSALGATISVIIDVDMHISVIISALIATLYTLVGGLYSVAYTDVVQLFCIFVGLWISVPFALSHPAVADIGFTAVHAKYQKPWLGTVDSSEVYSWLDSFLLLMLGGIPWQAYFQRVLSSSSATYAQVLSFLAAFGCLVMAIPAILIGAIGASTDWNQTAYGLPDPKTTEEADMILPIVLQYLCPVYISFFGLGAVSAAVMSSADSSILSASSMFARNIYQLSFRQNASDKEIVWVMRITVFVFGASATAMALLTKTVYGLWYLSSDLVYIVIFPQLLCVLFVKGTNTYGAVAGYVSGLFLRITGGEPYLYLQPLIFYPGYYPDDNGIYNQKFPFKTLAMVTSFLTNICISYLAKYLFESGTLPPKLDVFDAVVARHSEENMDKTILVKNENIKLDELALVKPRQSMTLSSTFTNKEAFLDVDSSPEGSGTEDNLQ
Kind of data set: human choline transporter blockers, potency – cell-based, 5-point CRC, membrane potential dye, dose response (AID 504840). Format: functional.

Data set [7] addresses T4, Polyadenylate-binding protein 1 (Homo sapiens, UniProt P11940). Description: MLLE binding blockers, Cy5 peptide tracer – biochemical, fluorescence polarization, Cy5-PAM2 peptide, secondary, miRNA deadenylation inhibitor project, dose response (AID 602260). The following applies: read-out: IC50_Mean. Format: functional. A general note: In fluorescence polarisation assays a small probe gives low polarisation when free and higher when bound to something large.

Data set [8] deals with T4, Polyadenylate-binding protein 1. Description: MLLE domain peptide-binding blockers, IC50 – biochemical, fluorescence polarization, FITC-PAM2 peptide, dose response (AID 602259). The following applies: read-out: IC50_Mean. Format: functional.
Data set [9] deals with Disintegrin and metalloproteinase domain-containing protein 17 (Homo sapiens, UniProt P78536). Kind of data set: exosite inhibitors of ADAM17, dose response, biochemical (AID 743260).
Chain of Disintegrin and metalloproteinase domain-containing protein 17 (P78536 whole entry, the tested form may be a part): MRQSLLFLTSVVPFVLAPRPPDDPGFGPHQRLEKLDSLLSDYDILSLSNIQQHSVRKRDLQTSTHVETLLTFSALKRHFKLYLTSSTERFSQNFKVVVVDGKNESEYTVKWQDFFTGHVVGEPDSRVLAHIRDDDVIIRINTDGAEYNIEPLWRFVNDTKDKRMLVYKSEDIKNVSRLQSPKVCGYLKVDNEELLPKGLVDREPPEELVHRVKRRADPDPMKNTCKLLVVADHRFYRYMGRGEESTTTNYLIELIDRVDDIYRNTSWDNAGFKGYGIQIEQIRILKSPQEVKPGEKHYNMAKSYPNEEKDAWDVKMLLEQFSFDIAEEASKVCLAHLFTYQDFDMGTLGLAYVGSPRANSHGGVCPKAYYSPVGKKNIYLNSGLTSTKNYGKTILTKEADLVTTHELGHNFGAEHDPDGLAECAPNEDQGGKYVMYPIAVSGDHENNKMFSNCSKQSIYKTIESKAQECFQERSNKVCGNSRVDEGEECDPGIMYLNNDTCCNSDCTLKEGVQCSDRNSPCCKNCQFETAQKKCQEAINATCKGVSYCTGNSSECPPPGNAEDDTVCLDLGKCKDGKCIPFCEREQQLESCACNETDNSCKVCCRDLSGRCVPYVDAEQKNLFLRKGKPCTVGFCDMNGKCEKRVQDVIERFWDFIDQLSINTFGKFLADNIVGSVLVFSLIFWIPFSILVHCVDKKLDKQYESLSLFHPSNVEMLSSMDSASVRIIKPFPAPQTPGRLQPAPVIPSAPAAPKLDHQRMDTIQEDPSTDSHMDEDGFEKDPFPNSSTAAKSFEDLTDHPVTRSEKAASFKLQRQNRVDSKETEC
For data set [10], the target named is T5, Cytochrome P450 1A2 (Homo sapiens, UniProt P05177).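 Also: PubChem cytochrome P450 panel assay, CYP1A2 panel member.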
T5 sequence (P05177 whole entry): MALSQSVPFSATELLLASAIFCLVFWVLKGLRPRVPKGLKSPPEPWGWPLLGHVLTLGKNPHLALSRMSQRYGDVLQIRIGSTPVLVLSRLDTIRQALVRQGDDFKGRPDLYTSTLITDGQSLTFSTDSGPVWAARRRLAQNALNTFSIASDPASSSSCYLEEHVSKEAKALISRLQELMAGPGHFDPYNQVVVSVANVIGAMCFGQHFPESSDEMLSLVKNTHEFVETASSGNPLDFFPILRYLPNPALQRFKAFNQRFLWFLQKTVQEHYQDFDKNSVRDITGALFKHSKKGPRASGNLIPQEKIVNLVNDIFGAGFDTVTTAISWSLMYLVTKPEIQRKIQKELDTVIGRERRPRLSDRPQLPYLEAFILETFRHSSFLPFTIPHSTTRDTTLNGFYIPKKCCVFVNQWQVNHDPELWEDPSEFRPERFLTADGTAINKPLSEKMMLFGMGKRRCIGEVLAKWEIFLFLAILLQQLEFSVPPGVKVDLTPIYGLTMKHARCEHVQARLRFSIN

Data set [11] has as its target T6, Cytochrome P450 3A4 (Homo sapiens, UniProt P08684).
Data set [12] addresses T6, Cytochrome P450 3A4. To be noted: Potency.
In data set [13] the target is Voltage-gated inwardly rectifying potassium channel KCNH2 (Homo sapiens, UniProt Q12809). The following applies: Potency.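 Also: confirmatory quantitative high-throughput screen measuring inhibition of hERG channel activity.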
Chain of Voltage-gated inwardly rectifying potassium channel KCNH2 (Q12809 whole entry): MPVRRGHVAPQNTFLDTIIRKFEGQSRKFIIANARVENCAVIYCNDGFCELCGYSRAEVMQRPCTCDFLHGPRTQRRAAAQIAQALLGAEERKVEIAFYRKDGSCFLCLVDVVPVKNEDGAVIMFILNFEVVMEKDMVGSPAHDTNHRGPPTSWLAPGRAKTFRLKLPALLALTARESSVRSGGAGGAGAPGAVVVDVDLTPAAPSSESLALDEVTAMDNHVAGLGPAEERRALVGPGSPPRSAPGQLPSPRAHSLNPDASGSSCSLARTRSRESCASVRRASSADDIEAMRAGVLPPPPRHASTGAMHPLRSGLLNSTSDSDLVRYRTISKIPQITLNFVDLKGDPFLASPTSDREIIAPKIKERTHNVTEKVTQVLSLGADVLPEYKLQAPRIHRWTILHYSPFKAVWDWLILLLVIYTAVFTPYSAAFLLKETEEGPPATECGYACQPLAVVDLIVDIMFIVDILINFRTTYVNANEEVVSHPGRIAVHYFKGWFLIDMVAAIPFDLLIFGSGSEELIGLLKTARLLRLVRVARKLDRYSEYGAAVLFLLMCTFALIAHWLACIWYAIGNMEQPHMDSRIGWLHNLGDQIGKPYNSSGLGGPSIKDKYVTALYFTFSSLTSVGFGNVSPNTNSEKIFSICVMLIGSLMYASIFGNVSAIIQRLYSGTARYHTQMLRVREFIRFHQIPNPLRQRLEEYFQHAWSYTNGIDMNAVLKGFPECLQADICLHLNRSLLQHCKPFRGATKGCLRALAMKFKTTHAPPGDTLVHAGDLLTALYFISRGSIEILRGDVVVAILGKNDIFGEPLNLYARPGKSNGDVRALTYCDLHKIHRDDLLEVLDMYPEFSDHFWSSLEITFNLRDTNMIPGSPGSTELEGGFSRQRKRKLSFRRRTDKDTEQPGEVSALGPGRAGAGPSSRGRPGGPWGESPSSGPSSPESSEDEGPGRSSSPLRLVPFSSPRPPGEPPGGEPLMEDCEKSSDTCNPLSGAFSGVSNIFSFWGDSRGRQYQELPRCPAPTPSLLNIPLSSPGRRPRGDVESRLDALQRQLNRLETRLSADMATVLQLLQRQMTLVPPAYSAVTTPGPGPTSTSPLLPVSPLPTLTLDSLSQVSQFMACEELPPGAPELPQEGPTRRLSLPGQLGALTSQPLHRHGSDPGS

The source made the active and inactive calls.

T4 sequence (P11940 whole entry): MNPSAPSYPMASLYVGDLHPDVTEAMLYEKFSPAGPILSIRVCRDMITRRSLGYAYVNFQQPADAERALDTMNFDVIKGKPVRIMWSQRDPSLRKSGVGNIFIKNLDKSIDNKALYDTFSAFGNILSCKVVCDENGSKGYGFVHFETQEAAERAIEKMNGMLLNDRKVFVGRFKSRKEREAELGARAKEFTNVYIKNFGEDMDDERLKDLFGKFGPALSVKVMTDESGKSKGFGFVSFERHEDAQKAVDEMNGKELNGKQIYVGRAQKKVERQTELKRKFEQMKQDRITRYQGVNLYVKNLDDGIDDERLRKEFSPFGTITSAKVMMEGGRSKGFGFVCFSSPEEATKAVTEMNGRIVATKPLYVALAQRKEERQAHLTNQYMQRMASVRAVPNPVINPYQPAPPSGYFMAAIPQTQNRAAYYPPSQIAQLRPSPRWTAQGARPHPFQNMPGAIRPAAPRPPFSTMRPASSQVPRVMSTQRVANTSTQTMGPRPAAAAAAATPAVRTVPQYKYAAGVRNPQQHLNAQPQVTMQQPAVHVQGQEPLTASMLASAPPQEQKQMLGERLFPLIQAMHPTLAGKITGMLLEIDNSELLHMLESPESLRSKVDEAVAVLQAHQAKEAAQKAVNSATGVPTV
Chain of Glucose-6-phosphate 1-dehydrogenase (P11413 whole entry): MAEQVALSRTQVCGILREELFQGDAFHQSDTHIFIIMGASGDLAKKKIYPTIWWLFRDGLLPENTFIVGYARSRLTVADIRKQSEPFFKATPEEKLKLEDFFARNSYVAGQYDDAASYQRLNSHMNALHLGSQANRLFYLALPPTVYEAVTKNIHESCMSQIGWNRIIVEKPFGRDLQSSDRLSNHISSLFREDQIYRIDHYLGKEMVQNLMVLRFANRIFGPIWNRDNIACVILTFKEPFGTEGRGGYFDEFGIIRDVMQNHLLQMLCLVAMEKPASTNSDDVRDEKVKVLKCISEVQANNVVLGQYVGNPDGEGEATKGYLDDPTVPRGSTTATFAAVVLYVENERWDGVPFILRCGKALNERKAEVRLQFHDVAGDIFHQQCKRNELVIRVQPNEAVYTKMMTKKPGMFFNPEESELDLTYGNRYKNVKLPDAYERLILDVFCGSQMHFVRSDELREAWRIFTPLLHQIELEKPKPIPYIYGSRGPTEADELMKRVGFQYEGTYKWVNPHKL
T6 sequence (P08684 whole entry): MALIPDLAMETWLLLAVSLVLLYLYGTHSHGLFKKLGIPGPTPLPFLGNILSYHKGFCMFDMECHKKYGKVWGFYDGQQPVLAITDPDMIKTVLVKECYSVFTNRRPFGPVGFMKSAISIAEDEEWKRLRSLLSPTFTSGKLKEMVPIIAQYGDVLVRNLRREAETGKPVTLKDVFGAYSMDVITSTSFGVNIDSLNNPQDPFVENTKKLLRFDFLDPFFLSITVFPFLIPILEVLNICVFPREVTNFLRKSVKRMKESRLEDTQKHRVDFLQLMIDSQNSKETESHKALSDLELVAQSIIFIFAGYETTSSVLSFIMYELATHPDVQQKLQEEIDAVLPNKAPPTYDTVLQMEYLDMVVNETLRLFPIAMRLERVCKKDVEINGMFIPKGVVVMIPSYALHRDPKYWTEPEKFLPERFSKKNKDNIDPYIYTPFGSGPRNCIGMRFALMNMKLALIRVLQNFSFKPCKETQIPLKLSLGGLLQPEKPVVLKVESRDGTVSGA

With `N#Cc1ccc(Oc2cccc3cccnc23)c([N+](=O)[O-])c1`, in [1], the IC50 was > 80 µM (inactive).

Regarding `COCCCNC(=O)c1ccc(CN2CCc3ccccc3C2)cc1`, the IC50 in data set [2] and in data set [3] was > 67.5 µM (inactive) each time.

As for `COc1ccc(CN(C)S(=O)(=O)c2nnc(NC(=O)c3ccc(C)cc3)s2)cc1OC`, in data set [1], the IC50 was 46 µM (inactive). For the compound `COc1cccc(CN2C(=O)N(C(C)C)C(N(O)C(=O)NC(C)C)C2(C)C)c1OC` (configuration not stated), in data set [4], the AC50 (as a rule, the midpoint of the concentration-response curve, whichever way the signal moves) is listed as “inconclusive”.

Consider `S=c1[nH]nc(-c2sccc2OCc2ccc(Cl)cc2Cl)[nH]1`, for which the IC50 in data set [5] is 10.1 µM (not active); in [6], 11.5 µM (active); in data set [7], > 66 µM (inactive); in data set [8], > 66 µM (inactive); in [9], > 69.5 µM (inactive). On to `O=C(/C=C/c1ccc2c(c1)OCCO2)c1ccc(O)cc1`, for which the IC50 in data set [2] was > 2.5 µM (active); in data set [3], > 67.6 µM (inactive).

As for `O=C(Oc1ccccc1)N1CCC2(CC1)CCN(c1cccc(-c3ccccc3)c1)CC2`, the AC50 in data set [10] was 12.6 µM (inconclusive); in data set [11], “inconclusive”. In the case of `Nc1ccccc1C(=O)OCCc1ccccc1`, the AC50 in data set [12] was 12.6 µM (inconclusive); in [13] it was 39.8 µM (inconclusive).

For `CCc1c(C)[nH]c2c1C(=O)[C@H](CN1CCOCC1)CC2.Cl` [MOLINDONE HYDROCHLORIDE], the AC50 entry in data set [4] is “inactive”.

These data come from ChEMBL document CHEMBL1201862, “PubChem BioAssay data set” (2004).
